Experimental data from patent publication US20100076015A1, “Aminopyridine Derivatives” (VANTIA LIMITED, priority 2008, published 2010).

Target: T1, Human KLK1 (Homo sapiens, UniProt P06870)
T1 construct: purchased Callbiochem (Calbiochem)
Assay: Determination of the IC50 for KLK1 (fluorogenic substrate H-DVal-Leu-Arg-AFC)
Assay type: biochemical
Conditions: 37° C.
Procedure: Determination of the IC50 for KLK1
KLK1 inhibitory activity in vitro was determined using standard published methods (see e.g. Johansen et al., Int. J. Tiss. Reac. 1986, 8, 185; Shori et al., Biochem. Pharmacol., 1992, 43, 1209; Stürzebecher et al., Biol. Chem. Hoppe-Seyler, 1992, 373, 1025). Human KLK1 (Callbiochem) was incubated at 37° C. with the fluorogenic substrate H-DVal-Leu-Arg-AFC and various concentrations of the test compound. Residual enzyme activity (initial rate of reaction) was determined by measuring the change in optical absorbance at 410 nm and the IC50 value for the test compound was determined.

T1 sequence (P06870 25-262): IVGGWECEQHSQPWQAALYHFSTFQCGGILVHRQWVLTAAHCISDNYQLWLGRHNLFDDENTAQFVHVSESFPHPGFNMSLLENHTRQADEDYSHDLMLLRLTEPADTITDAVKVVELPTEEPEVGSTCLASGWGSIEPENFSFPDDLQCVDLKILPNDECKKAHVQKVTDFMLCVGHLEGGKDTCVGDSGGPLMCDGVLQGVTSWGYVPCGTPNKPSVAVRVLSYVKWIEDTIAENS

Row | Structure (SMILES) | IC50 [nM]
1 | CCC(C)[C@@H](N)C(=O)N[C@@H](Cc1cc(F)c(F)cc1F)C(=O)NCc1ccc(N)nc1 (stereo partly drawn) [Example 38, (R)-2-Amino-3-methyl-pentanoic acid [(S)-1-[(6-amino-pyridin-3-ylmethyl)-carbamoyl]-2-(2,4,5-trifluoro-phenyl)-ethyl]-amide] | 9.2
2 | CCC(C)[C@@H](N)C(=O)N[C@@H](Cc1cc(F)cc(F)c1)C(=O)NCc1ccc(N)nc1 (stereo partly drawn) [Example 39, (R)-2-Amino-3-methyl-pentanoic acid [(S)-1-[(6-amino-pyridin-3-ylmethyl)-carbamoyl]-2-(3,5-difluoro-phenyl)-ethyl]-amide] | 5.8
3 | CCC(C)[C@@H](N)C(=O)N[C@@H](Cc1c[nH]c2ccccc12)C(=O)NCc1ccc(N)nc1 (stereo partly drawn) [Example 40, (R)-2-Amino-3-methyl-pentanoic acid [(S)-1-[(6-amino-pyridin-3-ylmethyl)-carbamoyl]-2-(1H-indol-3-yl)-ethyl]-amide] | 6.6
4 | CCC(C)[C@@H](N)C(=O)N[C@@H](Cc1csc2ccccc12)C(=O)NCc1ccc(N)nc1 (stereo partly drawn) [Example 41, (R)-2-Amino-3-methyl-pentanoic acid {(S)-1-[(6-amino-pyridin-3-ylmethyl)-carbamoyl]-2-benzo[b]thiophen-3-yl-ethyl}-amide] | 0.76
5 | CCC(C)[C@@H](NC)C(=O)N[C@@H](Cc1cccc(C(F)(F)F)c1)C(=O)NCc1ccc(N)nc1 (stereo partly drawn) [Example 42, (R)-3-Methyl-2-methylamino-pentanoic acid [(S)-1-[(6-amino-pyridin-3-ylmethyl)-carbamoyl]-2-(3-trifluoromethyl-phenyl)-ethyl]-amide] | 1.4
6 | CCC(C)[C@@H](NC)C(=O)N[C@@H](Cc1ccc(F)c(F)c1)C(=O)NCc1ccc(N)nc1 (stereo partly drawn) [Example 43, (R)-3-Methyl-2-methylamino-pentanoic acid [(S)-1-[(6-amino-pyridin-3-ylmethyl)-carbamoyl]-2-(3,4-difluoro-phenyl)-ethyl]-amide] | 2.9
7 | CCC(C)[C@@H](NC)C(=O)N[C@@H](Cc1ccc(F)cc1)C(=O)NCc1ccc(N)nc1 (stereo partly drawn) [Example 44, (R)-3-Methyl-2-methylamino-pentanoic acid [(S)-1-[(6-amino-pyridin-3-ylmethyl)-carbamoyl]-2-(4-fluoro-phenyl)-ethyl]-amide] | 5.4
8 | CCC(C)[C@@H](NC)C(=O)N[C@@H](Cc1cccc(Cl)c1)C(=O)NCc1ccc(N)nc1 (stereo partly drawn) [Example 45, (R)-3-Methyl-2-methylamino-pentanoic acid [(S)-1-[(6-amino-pyridin-3-ylmethyl)-carbamoyl]-2-(3-chloro-phenyl)-ethyl]-amide] | 3.1
9 | CCC(C)[C@@H](NC)C(=O)N[C@@H](Cc1ccc(Cl)cc1)C(=O)NCc1ccc(N)nc1 (stereo partly drawn) [Example 46, (R)-3-Methyl-2-methylamino-pentanoic acid [(S)-1-[(6-amino-pyridin-3-ylmethyl)-carbamoyl]-2-(4-chloro-phenyl)-ethyl]-amide] | 1.2
10 | CCC(C)[C@@H](NC)C(=O)N[C@@H](Cc1ccc(O)cc1)C(=O)NCc1ccc(N)nc1 (stereo partly drawn) [Example 47, (R)-3-Methyl-2-methylamino-pentanoic acid [(S)-1-[(6-amino-pyridin-3-ylmethyl)-carbamoyl]-2-(4-hydroxy-phenyl)-ethyl]-amide] | 316
11 | CCC(C)[C@@H](NC)C(=O)N[C@@H](Cc1cc(F)c(F)cc1F)C(=O)NCc1ccc(N)nc1 (stereo partly drawn) [Example 48, (R)-3-Methyl-2-methylamino-pentanoic acid [(S)-1-[(6-amino-pyridin-3-ylmethyl)-carbamoyl]-2-(2,4,5-trifluoro-phenyl)-ethyl]-amide] | 8
12 | CCC(C)[C@@H](NC)C(=O)N[C@@H](Cc1cc(F)cc(F)c1)C(=O)NCc1ccc(N)nc1 (stereo partly drawn) [Example 49, (R)-3-Methyl-2-methylamino-pentanoic acid [(S)-1-[(6-amino-pyridin-3-ylmethyl)-carbamoyl]-2-(3,5-difluoro-phenyl)-ethyl]-amide] | 4.2
13 | CCC(C)C(NC)C(=O)NC(Cc1c(F)c(F)c(F)c(F)c1F)C(=O)NCc1ccc(N)nc1 [Example 50, (R)-3-Methyl-2-methylamino-pentanoic acid {(S)-1-[(6-amino-pyridin-3-ylmethyl)-carbamoyl]-2-pentafluorophenyl-ethyl}-amide] | 29.1
14 | CCC(C)[C@@H](NC)C(=O)N[C@@H](Cc1csc2ccccc12)C(=O)NCc1ccc(N)nc1 (stereo partly drawn) [Example 51, (R)-3-Methyl-2-methylamino-pentanoic acid {(S)-1-[(6-amino-pyridin-3-ylmethyl)-carbamoyl]-2-benzo[b]thiophen-3-yl-ethyl}-amide] | 0.26
15 | CCC(C)[C@@H](NC)C(=O)N[C@@H](Cc1ccc(C(C)(C)C)cc1)C(=O)NCc1ccc(N)nc1 (stereo partly drawn) [Example 52, (R)-3-Methyl-2-methylamino-pentanoic acid [(S)-1-[(6-amino-pyridin-3-ylmethyl)-carbamoyl]-2-(4-tert-butyl-phenyl)-ethyl]-amide] | 24.5
16 | Nc1ccc(CNC(=O)[C@H](Cc2ccc(Cl)c(Cl)c2)NC(=O)[C@H]2CCCN2)cn1 [Example 55, (R)-Pyrrolidine-2-carboxylic acid [(S)-1-[(6-amino-pyridin-3-ylmethyl)-carbamoyl]-2-(3,4-dichloro-phenyl)-ethyl]-amide] | 0.7
17 | Nc1ccc(CNC(=O)[C@H](Cc2ccc(Cl)c(Cl)c2)NC(=O)[C@H]2CSCN2)cn1 [Example 56, (S)-Thiazolidine-4-carboxylic acid [(S)-1-[(6-amino-pyridin-3-ylmethyl)-carbamoyl]-2-(3,4-dichloro-phenyl)-ethyl]-amide] | 7.1
18 | Nc1ccc(CNC(=O)[C@H](Cc2ccc(Cl)c(Cl)c2)NC(=O)[C@H](N)c2ccccc2)cn1 [Example 57, (S)-2-((R)-2-Amino-2-phenyl-acetylamino)-N-(6-amino-pyridin-3-ylmethyl)-3-(3,4-dichloro-phenyl)-propionamide] | 4.6
19 | Nc1ccc(CNC(=O)[C@H](Cc2ccc(Cl)c(Cl)c2)NC(=O)[C@@H](N)c2ccccc2)cn1 [Example 58, (S)-2-((S)-2-Amino-2-phenyl-acetylamino)-N-(6-amino-pyridin-3-ylmethyl)-3-(3,4-dichloro-phenyl)-propionamide] | 48.6
20 | Nc1ccc(CNC(=O)[C@H](Cc2ccc(Cl)c(Cl)c2)NC(=O)[C@H]2CCCCN2)cn1 [Example 63, (R)-Piperidine-2-carboxylic acid [(S)-1-[(6-amino-pyridin-3-ylmethyl)-carbamoyl]-2-(3,4-dichloro-phenyl)-ethyl]-amide] | 0.66
21 | Nc1ccc(CNC(=O)[C@H](Cc2ccc(Cl)c(Cl)c2)NC(=O)[C@H]2Cc3ccccc3CN2)cn1 [Example 64, (R)-1,2,3,4-Tetrahydro-isoquinoline-3-carboxylic acid [(S)-1-[(6-amino-pyridin-3-ylmethyl)-carbamoyl]-2-(3,4-dichloro-phenyl)-ethyl]-amide] | 3.1
22 | Nc1ccc(CNC(=O)[C@H](Cc2ccc(Cl)c(Cl)c2)NC(=O)[C@H]2C=CCN2)cn1 [Example 65, (R)-2,5-Dihydro-1H-pyrrole-2-carboxylic acid [(S)-1-[(6-amino-pyridin-3-ylmethyl)-carbamoyl]-2-(3,4-dichloro-phenyl)-ethyl]-amide] | 2.7
23 | Nc1ccc(CNC(=O)[C@H](Cc2ccc(Cl)c(Cl)c2)NC(=O)[C@H]2CC(F)(F)CN2)cn1 [Example 66, (R)-4,4-Difluoro-pyrrolidine-2-carboxylic acid [(S)-1-[(6-amino-pyridin-3-ylmethyl)-carbamoyl]-2-(3,4-dichloro-phenyl)-ethyl]-amide] | 20.7
24 | Nc1ccc(CNC(=O)[C@H](Cc2ccc(Cl)c(Cl)c2)NC(=O)[C@H](N)CCc2ccccc2)cn1 [Example 67, (R)-2-Amino-N-[(S)-1-[(6-amino-pyridin-3-ylmethyl)-carbamoyl]-2-(3,4-dichloro-phenyl)-ethyl]-4-phenyl-butyramide] | 3.1
25 | Nc1ccc(CNC(=O)[C@H](Cc2ccc(Cl)c(Cl)c2)NC(=O)[C@H](N)CC2CCCCC2)cn1 [Example 68, (R)-2-Amino-N-[(S)-1-[(6-amino-pyridin-3-ylmethyl)-carbamoyl]-2-(3,4-dichloro-phenyl)-ethyl]-3-cyclohexyl-propionamide] | 9.2
26 | CNCC(=O)N[C@@H](Cc1ccc(Cl)c(Cl)c1)C(=O)NCc1ccc(N)nc1 [Example 69, (S)—N-(6-Amino-pyridin-3-ylmethyl)-3-(3,4-dichloro-phenyl)-2-(2-methylamino-acetylamino)-propionamide] | 42.2
27 | Nc1ccc(CNC(=O)[C@H](Cc2cccc(C(F)(F)F)c2)NC(=O)[C@H](N)Cc2ccc(Cl)cc2)cn1 [Example 70, (R)-2-Amino-N-[(S)-1-[(6-amino-pyridin-3-ylmethyl)-carbamoyl]-2-(3-trifluoromethyl-phenyl)-ethyl]-3-(4-chloro-phenyl)-propionamide] | 1.1
28 | Nc1ccc(CNC(=O)[C@H](Cc2ccc(F)c(F)c2)NC(=O)[C@H]2CCCN2)cn1 [Example 72, (R)-Pyrrolidine-2-carboxylic acid [(S)-1-[(6-amino-pyridin-3-ylmethyl)-carbamoyl]-2-(3,4-difluoro-phenyl)-ethyl]-amide] | 7.2
29 | Nc1ccc(CNC(=O)[C@H](Cc2ccc(F)cc2)NC(=O)[C@H]2CCCCN2)cn1 [Example 73, (R)-Piperidine-2-carboxylic acid [(S)-1-[(6-amino-pyridin-3-ylmethyl)-carbamoyl]-2-(4-fluoro-phenyl)-ethyl]-amide] | 1.1
30 | Nc1ccc(CNC(=O)[C@H](Cc2ccc(F)c(F)c2)NC(=O)[C@H]2CCCCN2)cn1 [Example 74, (R)-Piperidine-2-carboxylic acid [(S)-1-[(6-amino-pyridin-3-ylmethyl)-carbamoyl]-2-(3,4-difluoro-phenyl)-ethyl]-amide] | 1.8
